{"source": "patent US20130072385A1", "about": "“METHODS FOR DELAYING BUD BREAK BY APPLYING ABA ANALOGS” (priority 2011, published 2013)", "key": {"[1]": {"system": "PF-11 nectarine trees", "assay": "Fall foliar spray of PF-11 nectarine trees, bud break the following spring", "type": "in vivo", "conditions": "10,000 ppm in 0.1% Brij 98, fall foliar application; April 8", "method": "(§1) A study was conducted to determine the effect of spraying nectarine trees with ABA or ABA analogs in the fall on bud break the following spring. Mature PF-11 nectarine trees were sprayed to drip with surfactant alone or surfactant and ABA or ABA analog on Oct. 19, 2009. Trees were sprayed with approximately 500 ml (20.5 grams ABA analog/acre) applied to each of 6 trees per treatment arranged in a randomized complete block design. The following spring bud break on pre-selected branches was monitored."}, "[2]": {"system": "PF-11 nectarine trees", "assay": "Fall foliar spray of PF-11 nectarine trees, fruit number per tree the following spring", "type": "in vivo", "conditions": "10,000 ppm in 0.1% Brij 98, fall foliar application; June 10", "method": "as §1"}}}
{"substance": "(S)-5-(1-hydroxy-2,6,6)-trimethyl-4-oxo-2-cyclohexen-1-yl)-3-methyl-(2 Z,4E)-pentadienoic acid [ABA]", "values": [{"measurement": "Percentage of broken floral buds", "setting": "[1]", "value": 78, "unit": "Percentage"}, {"measurement": "Average number of fruit per tree", "setting": "[2]", "value": 55}]}
